One experiment deals with KRAS G12D (Homo sapiens (Human), UniProt P01116, G12D). Description: Inhibitory activity on KRAS G12D nucleotide (GDP-GTP) exchange reaction in vitro (SOS1-dependent, BODIPY FL GDP). The experiment is classed as biochemical. To be noted: BODIPY FL GDP-bound KRAS G12D, compound 25° C. 1 hour, then SOS1 and GMPPNP 30 minutes.
For experiment [1], the system named is KRAS-G12D mutant cell line (A-427). Description: Growth inhibition activity on KRAS-G12D mutant cell line (A-427), CellTiter-Glo 3D. The experiment is classed as cell-based. The following applies: Homo sapiens, 72 h, A-427 cells, 3-day culture with compound, read-out: A427 CTX IC50. On the technique in general: Cellular ATP, detected with luciferase, serves as a proxy for viable cell number.

The structures appear in SMILES notation. pIC50: −log10 of the molar value.

Sequence of KRAS G12D (P01116 other isoform, or with tags, fused parts or gaps G12D (already in the parent)): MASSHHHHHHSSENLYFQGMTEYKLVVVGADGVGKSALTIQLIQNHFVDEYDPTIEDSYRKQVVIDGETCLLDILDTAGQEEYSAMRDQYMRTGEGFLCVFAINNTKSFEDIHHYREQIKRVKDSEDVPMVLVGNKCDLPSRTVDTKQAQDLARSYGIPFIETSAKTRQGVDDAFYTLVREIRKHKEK

Regarding `C#Cc1cccc2cc(O)cc(C3Cc4nc(OCC5(CN6CCOCC6)CC5)nc(N5CC6CCC(C5)N6)c4CO3)c12` (stereo not shown) [Example 33, 4-(4-(3,8-diazabicyclo[3.2.1]octan-3-yl)-2-((1-(morpholinomethyl)cyclopropyl)methoxy)-7,8-dihydro-5H-pyrano[4,3-d]pyrimidin-7-yl)-5-ethynylnaphthalen-2-ol], the values for the negative logarithm of the IC50 (pIC50) (against KRAS G12D; in experiment [1]) were 7.95 and 5.90, respectively.
In the case of `C=Cc1cccc2cc(O)cc(C(=O)N3Cc4nc(OCC5(CN6CC[C@@H](F)C6)CC5)nc(N5CC6CCC(C5)N6)c4C3)c12` [Example 34, (4-(3,8-diazabicyclo[3.2.1]octan-3-yl)-2-((1-(((R)-3-fluoropyrrolidin-1-yl)methyl)cyclopropyl)methoxy)-5,7-dihydro-6H-pyrrolo[3,4-d]pyrimidin-6-yl) (3-hydroxy-8-vinylnaphthalen-1-yl)methanone], the pIC50 at KRAS G12D was 7.85; in experiment [1], 5.15.
In the case of `C=Cc1cccc2cc(O)cc(C(=O)N3Cc4nc(OCC5(CN6CCOCC6)CC5)nc(N5CC6CCC(C5)N6)c4C3)c12` [Example 35, (4-(3,8-diazabicyclo[3.2.1]octan-3-yl)-2-((1-(morpholinomethyl)cyclopropyl)methoxy)-5,7-dihydro-6H-pyrrolo[3,4-d]pyrimidin-6-yl) (3-hydroxy-8-vinylnaphthalen-1-yl) methanone], the pIC50 against KRAS G12D is 7.87; in experiment [1], 5.05.
As for `C#Cc1cccc2cc(N)nc(N3CCc4c(nc(OCC5(CN(C)C)CC5)nc4N4CC5CCC(C4)N5)C3)c12` [Example 36, 1-(4-(3,8-diazabicyclo[3.2.1]octan-3-yl)-2-((1-((dimethylamino)methyl)cyclopropyl)methoxy)-5,8-dihydropyrido[3,4-d]pyrimidin-7(6H)-yl)-8-ethynylisoquinolin-3-amine], the pIC50 at KRAS G12D is 7.56; in experiment [1], less than 5.00.
Consider `CN(C)CC1(COc2nc3c(c(N4CC5CCC(C4)N5)n2)COC(c2cc(O)cc4cccc(Br)c24)C3)CC1` (stereo not shown) [Example 37, 4-(4-(3,8-diazabicyclo[3.2.1]octan-3-yl)-2-((1-((dimethylamino)methyl)cyclopropyl)methoxy)-7,8-dihydro-5H-pyrano[4,3-d]pyrimidin-7-yl)-5-bromonaphthalen-2-ol], for which the pIC50 is 8.02 against KRAS G12D and 5.53 in experiment [1].

Usually pIC50 stands for the negative decadic logarithm of the IC50, by convention in mol/L.

For the origin of these results see US20230348495A1, “A COMPOUND HAVING INHIBITORY ACTIVITY AGAINST KRAS G12D MUTATION” (TAIHO PHARMACEUTICAL CO., LTD., priority 2019, published 2023).
